Data reported in patent US11590116B2 (THERAVANCE BIOPHARMA R&D IP, LLC, priority 2019, dated 2023).

How the values were obtained:
[1] = target: T1, recombinant human ALK5 (TGF-βR1) protein (Homo sapiens, UniProt P36897); test: Biochemical ALK5 (TGF-βR1) assay to measure pKi (LANCE Ultra ULight kinase assay); settings: apparent pKi from pIC50 by Cheng-Prusoff, read-out: ALK5 pKi (converted)
T1 construct: purchased Life Technologies PR9075A
T1 sequence (P36897 34-503): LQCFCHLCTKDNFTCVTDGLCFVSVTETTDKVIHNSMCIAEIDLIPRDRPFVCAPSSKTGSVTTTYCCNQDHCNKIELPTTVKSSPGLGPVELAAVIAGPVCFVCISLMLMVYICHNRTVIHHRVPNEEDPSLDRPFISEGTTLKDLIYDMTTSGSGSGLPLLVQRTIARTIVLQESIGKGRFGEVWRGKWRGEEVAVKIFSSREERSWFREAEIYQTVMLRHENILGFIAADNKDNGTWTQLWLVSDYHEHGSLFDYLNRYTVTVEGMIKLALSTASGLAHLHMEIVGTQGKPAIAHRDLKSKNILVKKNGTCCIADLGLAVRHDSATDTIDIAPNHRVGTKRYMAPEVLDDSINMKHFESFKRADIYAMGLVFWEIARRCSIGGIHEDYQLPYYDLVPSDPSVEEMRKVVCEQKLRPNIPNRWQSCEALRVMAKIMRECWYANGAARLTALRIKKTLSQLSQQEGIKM
Method in brief: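 Compounds (10 μM to 25 pM) were preincubated 60 min at room temperature with enzyme, then reactions were started with ATP (125 μM stock, 5× final) and run 60 min at 37 °C. EDTA-containing Eu-anti-phospho-Topo IIα (Thr1342) antibody stopped the reaction; TR-FRET read at 665 nm. pIC50 from 4-parameter fit, converted to pKi via Cheng-Prusoff.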

[2] = system: TGF-β-stimulated SMAD3 phosphorylation in BEAS-2B cells; test: Cellular ALK5 potency assay, inhibition of TGF-β stimulated pSMAD3 formation in BEAS-2B cells; assay type: cell-based; settings: Homo sapiens; inhibition of TGF-β stimulated pSMAD3 formation, BEAS-2B cells; read-out: BEAS2B pIC50 (converted)
Method in brief: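 SMAD3 phosphorylation was measured by AlphaLISA after 30 min TGF-β stimulation (10 ng/mL final) of BEAS-2B cells preincubated 1 h with compound at 37 °C. Results given as pIC50.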

| Ki [1] [nM] | Structure (SMILES) | IC50 [2] [nM] |
| --- | --- | --- |
| 0.0398 to 0.316 | Cc1cccc(-c2n[nH]cc2-c2ccc3ncc(-c4cnco4)cc3n2)n1 [Compound 317, 5-[6-[3-(6-methyl-2-pyridyl)-1H-pyrazol-4-yl]-1,5-naphthyridin-3-yl]oxazole] | < 20 |
| 0.0398 to 0.316 | Cc1cccc(-c2[nH]cnc2-c2ccc3ncc(NCC4CNC4)cc3c2)n1 [Compound 11, N-(azetidin-3-ylmethyl)-6-[5-(6-methyl-2-pyridyl)-1H-imidazol-4-yl]quinolin-3-amine] | 25.1 to 158 |
| 0.0398 to 0.316 | Cc1cccc(-c2nnn(Cc3ccccc3)c2-c2ccc3ncc(NCCN4CCN(C(C)C)CC4)cc3c2)n1 [Compound 584, 6-[3-benzyl-5-(6-methyl-2-pyridyl)triazol-4-yl]-N-[2-(4-isopropylpiperazin-1-yl)ethyl]quinolin-3-amine] | 200 to 1260 |
| 0.0398 to 0.316 | Cc1cccc(-c2[nH]cnc2-c2ccc3ncc(NCCN4CCC5(CCNCC5)C4)cc3c2)n1 [Compound 703, N-[2-(2,8-diazaspiro[4.5]decan-2-yl)ethyl]-6-[5-(6-methyl-2-pyridyl)-1H-imidazol-4-yl]quinolin-3-amine] | 25.1 to 158 |
| 0.0398 to 0.316 | Cc1cccc(-c2[nH]cnc2-c2ccc3ncc(-c4cncc(CN5CCNCC5)c4)cc3c2)n1 [Compound 1117, 6-[5-(6-methyl-2-pyridyl)-1H-imidazol-4-yl]-3-[5-(piperazin-1-ylmethyl)-3-pyridyl]quinoline] | 25.1 to 158 |
| 0.398 to 3.16 | Cc1cccc(-c2[nH]cnc2-c2ccc3ncc(C(=O)O[C@H]4CCNC4)cc3c2)n1 [Compound 757, [(3S)-pyrrolidin-3-yl] 6-[5-(6-methyl-2-pyridyl)-1H-imidazol-4-yl]quinoline-3-carboxylate] | 25.1 to 158 |
| 0.0398 to 0.316 | Cc1cccc(-c2n[nH]cc2-c2ccc3ncc(-c4cnc5n4CCCN5)cc3n2)n1 [Compound 655, 2-[3-(6-methyl-2-pyridyl)-1H-pyrazol-4-yl]-7-(5,6,7,8-tetrahydroimidazo[1,2-a]pyrimidin-3-yl)-1,5-naphthyridine] | 25.1 to 158 |
| 0.0398 to 0.316 | Cc1cccc(-c2[nH]cnc2-c2ccc3ncc(-c4ccc(C(=O)O[C@@H]5CCN(C)C5)cc4)cc3c2)n1 [Compound 158, [(3R)-1-methylpyrrolidin-3-yl] 4-[6-[5-(6-methyl-2-pyridyl)-1H-imidazol-4-yl]-3-quinolyl]benzoate] | 25.1 to 158 |
| 0.0398 to 0.316 | Cc1cccc(-c2[nH]ncc2-c2ccc3ncc(C(=O)NN)cc3n2)n1 [Compound 247, 6-[5-(6-methyl-2-pyridyl)-1H-pyrazol-4-yl]-1,5-naphthyridine-3-carbohydrazide] | 25.1 to 158 |
| 0.0398 to 0.316 | CCOC(=O)CCc1cnc2ccc(-c3c[nH]nc3-c3cccc(C)n3)nc2c1 [Compound 499, ethyl 3-[6-[3-(6-methyl-2-pyridyl)-1H-pyrazol-4-yl]-1,5-naphthyridin-3-yl]propanoate] | 25.1 to 158 |
| 0.0398 to 0.316 | CCOC(=O)C1CC=C(c2cnc3ccc(-c4nc[nH]c4-c4cccc(C)n4)cc3c2)CC1 (stereo not drawn) [Compound 167, ethyl 4-[6-[5-(6-methyl-2-pyridyl)-1H-imidazol-4-yl]-3-quinolyl]cyclohex-3-ene-1-carboxylate] | 25.1 to 158 |
| < 0.0316 | CNCCn1cc(-c2cnc3ccc(-c4nc[nH]c4-c4ccc(F)c(C)n4)cc3c2)cn1 [Compound 401, 2-[4-[6-[5-(5-fluoro-6-methyl-2-pyridyl)-1H-imidazol-4-yl]-3-quinolyl]pyrazol-1-yl]-N-methyl-ethanamine] | 25.1 to 158 |
| 0.398 to 3.16 | Cc1cccc(-c2n[nH]cc2-c2ccc3nccc(NC(=O)CN4CCN(C(C)C)CC4)c3n2)n1 [Compound 839, 2-(4-isopropylpiperazin-1-yl)-N-[6-[3-(6-methyl-2-pyridyl)-1H-pyrazol-4-yl]-1,5-naphthyridin-4-yl]acetamide] | 25.1 to 158 |
| 0.0398 to 0.316 | Cc1cccc(-c2[nH]ncc2-c2ccc3ncc(C(=O)OCCN4CCCCC4)cc3c2)n1 [Compound 1173, 2-(1-piperidyl)ethyl 6-[5-(6-methyl-2-pyridyl)-1H-pyrazol-4-yl]quinoline-3-carboxylate] | 25.1 to 158 |
| 0.0398 to 0.316 | Cc1cccc(-c2[nH]cnc2-c2ccc3ncc(-c4csc(C(=O)OCC5CNC5)c4)cc3c2)n1 [Compound 753, azetidin-3-ylmethyl 4-(6-(5-(6-methylpyridin-2-yl)-1H-imidazol-4-yl)quinolin-3-yl)thiophene-2-carboxylate] | 25.1 to 158 |
| 0.0398 to 0.316 | Cc1cccc(-c2nn3cc(Cl)ccc3c2-c2ccc3ncc(-c4cn[nH]c4)cc3n2)n1 [Compound 330, 2-[6-chloro-2-(6-methyl-2-pyridyl)pyrazolo[1,5-a]pyridin-3-yl]-7-(1H-pyrazol-4-yl)-1,5-naphthyridine] | 25.1 to 158 |
| 0.0398 to 0.316 | Cc1cccc(-c2n[nH]cc2-c2ccc3ncc(-c4ccccn4)cc3n2)n1 [Compound 518, 2-[3-(6-methyl-2-pyridyl)-1H-pyrazol-4-yl]-7-(2-pyridyl)-1,5-naphthyridine] | < 20 |
| 0.0398 to 0.316 | Cc1cccc(-c2[nH]cnc2-c2ccc3ncc(NCCN4CCC5(CCNC5)C4)cc3c2)n1 (stereo not drawn) [Compound 711, N-[2-(2,7-diazaspiro[4.4]nonan-2-yl)ethyl]-6-[5-(6-methyl-2-pyridyl)-1H-imidazol-4-yl]quinolin-3-amine] | 200 to 1260 |
| 0.398 to 3.16 | Cc1cccc(-c2n[nH]cc2-c2ccc3ncc(-c4nc(C(=O)O)co4)cc3n2)n1 [Compound 546, 2-[6-[3-(6-methyl-2-pyridyl)-1H-pyrazol-4-yl]-1,5-naphthyridin-3-yl]oxazole-4-carboxylic acid] | 1580 to 10000 |
| 0.0398 to 0.316 | Cc1cccc(-c2nnn(Cc3ccccc3)c2-c2ccc3ncc(N4CCC(N(C)C)C4)cc3n2)n1 (racemic) [Compound 331, rac-(3S)-1-[6-[3-benzyl-5-(6-methyl-2-pyridyl)triazol-4-yl]-1,5-naphthyridin-3-yl]-N,N-dimethyl-pyrrolidin-3-amine] | 200 to 1260 |
| 3.98 to 31.6 | Cc1cccc(-c2[nH]ncc2-c2ccc3ncc(C(=O)O)cc3n2)n1 [Compound 553, 6-[5-(6-methyl-2-pyridyl)-1H-pyrazol-4-yl]-1,5-naphthyridine-3-carboxylic acid] | 1580 to 10000 |
| 0.0398 to 0.316 | Cc1cccc(-c2[nH]cnc2-c2ccc3ncc(-c4cnc5c(c4)CNCC5)cc3c2)n1 [Compound 77, 3-[6-[5-(6-methyl-2-pyridyl)-1H-imidazol-4-yl]-3-quinolyl]-5,6,7,8-tetrahydro-1,6-naphthyridine] | 25.1 to 158 |
| 0.0398 to 0.316 | Cc1cccc(-c2[nH]cnc2-c2ccc3ncc(-c4cccc(C(=O)O[C@@H]5CCNC5)c4)cc3c2)n1 [Compound 736, [(3R)-pyrrolidin-3-yl] 3-[6-[5-(6-methyl-2-pyridyl)-1H-imidazol-4-yl]-3-quinolyl]benzoate] | 25.1 to 158 |
| < 0.0316 | Cc1nc(-c2n[nH]cc2-c2ccc3ncc(-c4cc5n(n4)CCN5)cc3n2)ccc1F [Compound 574, 7-(2,3-dihydro-1H-imidazo[1,2-b]pyrazol-6-yl)-2-[3-(5-fluoro-6-methyl-2-pyridyl)-1H-pyrazol-4-yl]-1,5-naphthyridine] | < 20 |
